From a melting point compilation (Tetko et al.; mined from patent text by program, amines drawn as free bases though some values may be those of a salt) come the findings set out here.

A value given as a limit tells only on which side of the number the result lay.

As a reminder, the melting point is the temperature, or range, at which the solid turns liquid. For the compound `COC(=O)c1ccccc1NC(=O)N(C)CCO`, the melting point is 90 °C. The figure for `O=C(Nc1ccc(Oc2ccnc(NC3CC3)n2)c2ccccc12)c1cc(F)cc(N2CCOCC2)c1` is 118 to 120 °C. In turn, `CC(=O)N(C)c1c(C(=O)c2cccc(C)c2)[nH]c2cc(Cl)ccc12` yielded a melting point of 166 to 171 °C. Under `COc1cc(C=Cc2cc(OC)c(OC)c(OC)c2)cc(Br)c1OC` stands 180 to 182 °C; under `CCCCCCCCCCCCc1nnn(C(C(=O)Nc2c(C(C)C)cccc2C(C)C)c2ccccc2)n1` (configuration not stated), 93 to 95 °C. For the compound `CNc1nc(Cc2c(Cl)cccc2Cl)nc(Nc2ccc(C#N)cc2)n1`, the melting point fell in the range of 229 to 230 °C. Under `CC(C)[C@H](NC(=O)OCC1c2ccccc2-c2ccccc21)C(=O)N[C@@H](C)C(=O)O` stands 122 to 123 °C; under `CCCc1ccc(-c2cc(NC(=O)C3Cc4ccccc4C3)n[nH]2)cc1`, 211 to 213 °C. Compound `CCn1c2ccccc2c2cc(C=C(C#N)c3cc(C(F)(F)F)cc(C(F)(F)F)c3)ccc21` registered a melting point of 164 to 165 °C. Under `CC(C)(C)OC(=O)Nc1ccccc1NC(=O)c1nc2c(s1)CN(C(=O)OC(C)(C)C)CC2` stands 188 °C. The figure for `CCCCCCCCN1CCN(O)C1=O` is 53.5 to 55.5 °C; for `CCOP(=O)(OCC)C1=C(C(=O)OC(c2ccccc2)c2ccccc2)N2C(=O)C(NC(=O)COc3ccccc3)C2CC1` (configuration not stated) it is 70 to 74 °C.

Compound `CC(C)(C)c1nc2cc(N3CCCCC3)c(N=C=S)cc2s1` displayed a melting point of 112 to 114 °C. Consider `Cc1ccc(OS(=O)(=O)c2ccc(N3CCN(C)C3=O)cc2)c(C)c1`, for which the melting point lay within 159 to 161 °C. `O=C(O)c1ccc(CN2Cc3ccccc3Cc3ccccc32)cc1` registered a melting point of 198 °C. The figure for `CCOC(=O)n1c(SC(F)(F)C(F)F)nc(-c2ccccc2)c1-c1ccccc1` is 126 to 127 °C; for `O=C(NC(Cl)C(Cl)(Cl)Cl)c1ccccc1O` (configuration not stated) it is 113 to 114 °C; for `Cc1ccc(-c2ccccc2-c2nnn[nH]2)cc1` it is 148 to 150 °C.

Regarding `CN(C)C(=O)C1(c2ccccc2)CCNCC1`, the melting point turned out to be 95 °C.

`CCN(c1nc(C)cc(C)n1)c1ccc(C(C)C)cc1S(C)(=O)=O` returned a melting point of 174 to 175 °C. Under `CC1(C)CCC(N2c3ccccc3Oc3ccc(C(F)(F)F)cc32)=N1` stands 64 to 67 °C; under `COc1cc(C=Cc2nc3c(c(=O)n(C)c(=O)n3C)n2C)cc(OC)c1OCc1ccccc1`, 190 to 195 °C. The figure for `O=[N+]([O-])c1ccc(OCCc2c[nH]cn2)cc1` is 197 to 200 °C.

`Cc1ccc(C(=O)Nc2nc(=O)c3ccccc3n2C)cc1` had a melting point of 235 to 238 °C. The figure for `COC(=O)C1CC(C#N)(c2ccc(OC)c3oc(C(C)C)nc23)CCC1=O` (configuration not stated) is 150 °C. The figure for `Cc1c2cccccc-2c(-c2ccccc2)c1-c1ccc(S(C)(=O)=O)cc1` is 165 to 167 °C. Under `CCCCc1nc2c(N)nc3ccc(OCc4ccccc4)cc3c2n1CCCCNC(=O)N1CCOCC1` stands 177 to 179 °C; under `Cc1ccnc2c([N+](=O)[O-])cc3c(c12)OCO3`, 183 to 185 °C. The compound `CC(C)(C)Nc1c(NCc2ccc(OC(F)(F)F)cc2)c(=O)c1=O` yielded a melting point of 292 to 294 °C. In turn, `Nc1ncc(-c2noc(-c3cnn4c(C(F)(F)F)cc(-c5ccc(Cl)c(Cl)c5)nc34)n2)cn1` yielded a melting point of 300 °C.

In turn, `CSC(C)(C)C(=O)N[C@@H](CS)C(=O)O` displayed a melting point of 110 to 112 °C.

As for `COc1cc(Nc2c(C#N)cnc3cc(-c4ccc(CNCCS(C)(=O)=O)o4)ccc23)c(Cl)cc1Cl`, the melting point lay in the range of 171 to 174 °C.

`COc1ccc(C(=O)c2ccccc2F)c(O)c1Cl` yielded a melting point of 132 to 133 °C.

In turn, `BrCCCCCCCCCCCCCCCCCCCCBr` showed a melting point of 62 °C. Under `CC(C)(C)C(=O)C(Cl)C(=O)Nc1ccccc1` (configuration not stated) stands 154 °C; under `CCCc1cccn2c(=O)c(-c3nnn[nH]3)cnc12`, 269 to 272 °C.

As to `C1COC2(OC1)OCCCO2`, the melting point lay within 137 to 140 °C. The figure for `Cc1cc(-n2ccnc2)c2cccc(OCc3c(Cl)ccc(S(=O)(=O)N4CCC[C@H]4C(=O)NCC4CCN(CCOCCO)CC4)c3Cl)c2n1` is 96 °C. The figure for `CCOC(=O)N1CCC(N(C)C(=O)c2ccc(Cl)c(Cl)c2)C12CCCCC2` (configuration not stated) is 57 to 60 °C; for `CC(C)CCC(=O)N[C@H]1CC[C@H](CCN2CCN(c3nccc4c3CCO4)CC2)CC1` it is 182 °C; for `CCOC(=O)C(C(=O)CBr)C1Cc2ccccc2C(c2ccccc2)N1` (configuration not stated) it is 107 to 109 °C. The figure for `CCn1ncc2c3noc(-c4cccc(Cl)c4)c3cnc21` is 207 to 209 °C. With `CCOC(=O)c1c(C)c[nH]c1C`, the melting point lay within 74 to 76 °C. Compound `CN(C)Cc1cc(Cl)ccc1OCCN(C)Cc1ccc(C(N)=O)cc1` returned a melting point of 108 to 109 °C.

For `OC1CSC(Oc2cnc(-c3cccnc3)c(F)c2)C(O)C1O` (configuration not stated), the melting point amounted to 179 °C.

`CS(=O)(=O)c1ccc(-n2nc(C(F)(F)F)cc2-c2ccc(-c3ccco3)cc2F)cc1F`: the melting point was 156 to 160 °C. Under `CC(C)(c1ccc(C(=O)Nc2cn3cc(Cl)ccc3n2)cc1)c1nnn[nH]1` stands 266 to 267 °C; under `O=c1[nH]c2cc(Cl)cc(Cl)c2c(O)c1Sc1ccc(NS(=O)(=O)c2ccc(Cl)cc2)cc1`, 270 to 274 °C. The figure for `CCCC=Cc1c(C(C)C)nc(C(C)C)c(CO)c1-c1ccc(Cl)c(Cl)c1` is 46 to 48 °C; for `O=C(Nc1c(C(O)(C(F)(F)F)C(F)(F)F)ccc2ccccc12)c1cccc([N+](=O)[O-])c1` it is 211 to 212 °C; for `CSc1ccc(N2CCN(c3c(C)c(C)c4c(c3C)CC(C)(C)O4)CC2)cc1` it is 211 to 213 °C.

For the compound `CC1CCc2nc(-c3ccccc3)[nH]c(=O)c2C1` (configuration not stated), the melting point came out at 237 °C. As to `CO/N=C1\CCCC[C@@H]1NC(=O)c1cnc(O[C@@H](C)C(F)(F)F)c(-c2ccc(Cl)cc2)n1`, the melting point is 120 to 123 °C. `Cc1ccc(SCCC(=O)c2cc(O)c(O)c([N+](=O)[O-])c2)cc1` came in with a melting point of 160 to 161 °C. The figure for `CNC(=S)NS(=O)(=O)c1cc(CCNC(=O)c2cc(Cl)ccc2OC)ccc1-c1cccs1` is 189 to 191 °C; for `CCOC(=O)/C(=C\c1ccc([N+](=O)[O-])cc1)P(=O)(OCC)OCC` it is 60 to 61 °C. The figure for `CC(C)(C)c1nnc(S)n(N)c1=O` is 209 to 212 °C; for `COc1ccc(-c2cc3ccccc3[nH]2)cc1N` it is 208 to 209 °C. Under `Cc1cccc(/C(N)=C2\Sc3ccccc3C2=O)c1` stands 114 to 115 °C; under `CN1C(=O)N(C)C(O)C1O` (configuration not stated), 140 °C; under `N#Cc1ccnc(OCc2nc3cc(Cl)ccc3s2)c1`, 224 to 227 °C. Regarding `COc1ccc(-n2nnc(-c3ccc(C(F)(F)F)cc3F)c2N)cc1`, the melting point lay within 165 to 166 °C. The figure for `CC(C)NC(=O)Nc1cc(-c2ccnc3c(C(=O)c4cccs4)cnn23)ccc1F` is over 200 °C; for `O=C(OCc1ccccc1)c1ccc(OCc2ccccc2)cc1OCc1ccccc1` it is 118 to 120 °C. The figure for `CCOC(=O)C(=CNc1ccc(F)cc1F)C(=O)c1c(F)c(F)c(F)c(F)c1F` is 97 to 99 °C. Regarding `O=C1CC(c2ccccc2)c2cc(Br)ccc2O1` (configuration not stated), the melting point came to 117 °C. In turn, `NC(=O)CCC1CN(c2ccc(C3=CCN(C=O)CC3)c(F)c2)C(=O)O1` (configuration not stated) returned a melting point of 148 to 151 °C. For the compound `CCCCCCCCCCCCCCN(O)CCCCCCCCCCCCCC`, the melting point lay within 94 to 96 °C. Under `Cc1ccc(S(=O)(=O)NC(Cc2ccccc2)C(=O)O)cc1` (configuration not stated) stands 134 to 135 °C; under `C=CCc1cc(C(C)=O)c(OC)cc1OCCCCC#N`, 40 to 42 °C; under `C=CCn1c(C)c(C)c2cnnc(OCc3ccc(C(F)(F)F)cc3)c21`, 95 to 96 °C.

`CCOC(=O)C1=CC=C2C(=CNN2CC)N1NN=C(C)CC#N` displayed a melting point of 190 to 191 °C. Under `NS(=O)(=O)c1ccc(-c2cnn(-c3ccc(F)c(F)c3)c(=O)c2Oc2ccc(F)cc2)cc1F` stands 224 to 226 °C; under `COc1ccc(CNc2nc(-c3ccc(C(=O)O)cc3)nc3c2c2c(n3C(C)c3ccccc3)CCCC2)cc1Cl` (configuration not stated), 179 °C; under `CCOC(=O)N1CC[C@H](Oc2cccc(F)c2)[C@H](c2ccccc2)C1` (relative stereo), 74 to 76.5 °C. Under `COC(=O)c1c(C)sc2cc(CCl)ccc12` stands 78 to 79 °C; under `CCC(=O)OC(C)c1ccc(-c2ccc(C(=O)O)cc2)cc1` (single isomer, unassigned; (+)), 175 to 176 °C; under `O=C(NC/C=C\COc1cc(CN2CCCCC2)ccn1)NC1CCC1`, 130 to 132 °C. `Cc1ccc(S(=O)(=O)OC[C@H](O)CO)cc1` showed a melting point of 54 to 59 °C. The figure for `CCCn1c(=O)c2c(nc(/C=C/c3ccc(Cl)c(Cl)c3)n2C)n(CCC)c1=O` is 125 to 136 °C; for `CCNC(=O)c1ccccc1Nc1nc(Nc2c(OC)ccc3c2CC(=O)N(CC)CC3)ncc1Cl` it is 117 to 141 °C; for `CCn1c2ccc(C=O)cc2c2ccc3ccccc3c21` it is 135 to 140 °C. Under `CCCCOc1ncc(C(C)=O)cc1-c1nn2c(CC)nc(C)c2c(=O)[nH]1` stands 190 to 196 °C; under `COc1cccc(C2=C(CC(C)=NO)C(=O)NCCC2)c1`, 155 to 158 °C; under `CC1Cc2cc3c(cc2C(c2ccc([N+](=O)[O-])cc2)=NN1c1nc(C(=O)O)cs1)OCO3` (configuration not stated), over 260 °C. In turn, `CCCCc1nc2c(N)nc3cc(/C=C/c4ccccc4)ccc3c2n1CC(C)C` came in with a melting point of 215 to 216 °C. The figure for `Cn1c(SCC(=O)NCCC[N+](C)([O-])Cc2ccc(Cl)c(Cl)c2)nc2ccccc21` (configuration not stated) is 106 to 110 °C.
